The structures appear in SMILES notation. Where two headings read alike, the source gives them in different places.

Experiment [1] relates to reserpine-induced hypothermia. Briefly: Antidepressant action: inhibition of reserpine-induced hypothermia (reserpine test). Format: in vivo, mouse (male, Swiss strain). The conditions noted are these: oral administration, 60 minutes before reserpine 2.15 mg/kg s.c.; mouse; temperature 2 hours after; read-out: Antidepressant action (mouse) ED50. On the procedure: The test substances are administered orally, 60 minutes before the reserpine.

Experiment [2] concerns the target T1, Monoaminoxidase A (Rattus norvegicus, UniProt P21396).
T1 sequence (P21396 1-526): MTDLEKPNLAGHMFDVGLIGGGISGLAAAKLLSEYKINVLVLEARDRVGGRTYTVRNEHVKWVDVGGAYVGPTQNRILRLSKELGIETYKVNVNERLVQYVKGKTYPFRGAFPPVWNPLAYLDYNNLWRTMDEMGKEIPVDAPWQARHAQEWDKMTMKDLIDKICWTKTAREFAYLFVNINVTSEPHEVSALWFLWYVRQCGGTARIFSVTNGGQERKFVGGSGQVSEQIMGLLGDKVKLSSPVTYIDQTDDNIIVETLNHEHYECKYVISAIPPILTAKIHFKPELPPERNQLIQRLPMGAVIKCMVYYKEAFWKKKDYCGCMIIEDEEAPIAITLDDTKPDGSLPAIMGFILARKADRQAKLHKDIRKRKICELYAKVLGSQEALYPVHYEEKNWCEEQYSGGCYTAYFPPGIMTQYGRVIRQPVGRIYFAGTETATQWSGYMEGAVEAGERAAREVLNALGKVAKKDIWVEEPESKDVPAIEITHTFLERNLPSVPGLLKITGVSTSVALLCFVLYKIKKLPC
Briefly: biochemical. Conditions: read-out: Monoaminoxidase inhibition IC50. On the procedure:
Monoaminoxidase A is determined in dilute rat brain homogenate to which
1. various concentrations of the test substances and
2. ^14 C-tryptamine in a concentration of 0.4 μmol/liter are added. This mixture is incubated at 37° C. for 20 minutes, after which the reaction is terminated by means of aqueous 0.1N HCl, and the products are extracted with toluene scintillator (PPO+POPOP in toluene) and then determined. The blank value is determined in similar mixtures for an incubation time of t=0 minutes.
The mean inhibitory concentration (IC50) is calculated from the inhibitory values determined, in comparison with the control, at the various inhibitor concentrations, by means of a linear regression after logit-log transformation.

The target in experiment [3] is T1, Monoaminoxidase A. The conditions noted are these: in words, known for the comparative substance; cited from earlier work.
The mark [4] stands for this setting: monoaminoxidase A, rat brain homogenate, 14C-tryptamine 0.4 μmol/liter, 37° C., 20 minutes.

As for `Cc1cc(=O)oc2cc(OS(C)(=O)=O)ccc12` [Example 42, 7-Hydroxy-4-methylcoumarin methanesulfonate], in experiment [1], the ED50 is 19.6 mg/kg. The IC50 on Monoaminoxidase A [2] (setting [4]) came to 130 nM.
`Cc1c(C)c2ccc(OS(=O)(=O)CC(C)C)cc2oc1=O` [Example 52, 7-Hydroxy-3,4-dimethylcoumarin 2'-methylpropanesulfonate]: in experiment [1], the ED50 was determined as 0.3 mg/kg. Also, the concentration for half-maximal inhibition (IC50) on Monoaminoxidase A [2] (setting [4]) was determined as 5.7 nM.
With `C#CCN(C)Cc1ccccc1` [Pargyline, reference compound], the ED50 in experiment [1] was found to be 48 mg/kg. Also, at Monoaminoxidase A [3], the “action mechanism (known)” value is “inhibition of monoaminoxidase A”. Besides, the IC50 at Monoaminoxidase A [2] came out at 2000 nM.
